Laboratory results as given in patent US7964624B1, “Inhibitors of serine proteases” (priority 2005, dated 2011).

Biological target: T1, full-length hepatitis C viral protein NS3•4A (Hepatitis C virus genotype 1a, UniProt P27958)
T1 construct: hexa-histidine (N); made in house; host or cells: Sf9 insect cells (baculovirus, pVL1392)
Assay: biochemical
Parameters: species or system HCV sub-type strain 1a

[1] = Enzyme Assay 2, HCV NS3 Peptide Cleavage Assay, apparent Ki
[2] = Enzyme Assay 2 (HCV NS3 Peptide Cleavage Assay) activity, apparent Ki class

| SMILES | Ki [1] | Ki [2] |
| --- | --- | --- |
| CCNC(=O)C(=O)[C@H](CC1CC1)NC(=O)[C@@H]1C[C@]2(CC(c3cc(Cl)c(OC)cc3OC)=NO2)CN1C(=O)[C@@H](NC(=O)C1CC1)C(C)(C)C [Compound 896] | < 100 nM |  |
| CCC[C@H](NC(=O)[C@@H]1C[C@]2(CC(c3cc(C)c(OCC)c(C)c3)=NO2)CN1C(=O)[C@@H](NC(=O)CC1CCCCC1)C(C)(C)C)C(=O)C(=O)NC1CC1 [Compound 513] |  | < 100 nM |
| CCC[C@H](NC(=O)[C@@H]1C[C@]2(CC(c3cc(Cl)c(OC)cc3OC)=NO2)CN1C(=O)[C@@H](NC(=O)[C@@H]1CC1c1ccccc1)C(C)(C)C)C(=O)C(N)=O (stereo partly shown) [Compound 801] | < 100 nM |  |
| COc1ccc(Cl)cc1C1=NO[C@]2(C1)C[C@@H](C(=O)N[C@@H](CC1CC1)C(=O)C(N)=O)N(C(=O)[C@@H](NC(=O)[C@@H]1C[C@H]1c1ccccc1)C(C)(C)C)C2 [Compound 901] | < 100 nM |  |
| CCC[C@H](NC(=O)[C@@H]1C[C@]2(CC(c3cc(Cl)c(C)cc3OC)=NO2)CN1C(=O)[C@@H](NC(=O)CC1CCCCC1)C(C)(C)C)C(=O)C(=O)NC1CC1 [Compound 820] | < 100 nM |  |
| CCC[C@H](NC(=O)[C@@H]1C[C@]2(CC(c3cc(C)c(OC)c(Cl)c3)=NO2)CN1C(=O)[C@@H](NC(=O)CC1CCCCC1)C(C)(C)C)C(=O)C(=O)NC [Compound 641] |  | < 100 nM |
| CNC(=O)C(=O)[C@H](CC1CC1)NC(=O)[C@@H]1C[C@]2(CC(c3cccc(Cl)c3)=NO2)CN1C(=O)[C@@H](NC(=O)[C@@H]1C[C@H]1c1ccccc1OC)C(C)(C)C [Compound 867] | < 100 nM |  |
| CCC[C@H](NC(=O)[C@@H]1C[C@]2(CC(c3cccc(Cl)c3)=NO2)CN1C(=O)[C@@H](NC(=O)[C@H]1C[C@@H]1c1ccccc1)C(C)(C)C)C(=O)C(=O)NC1CC1 [Compound 697] |  | < 100 nM |
| CCC[C@H](NC(=O)[C@@H]1C[C@]2(CC(c3cc(Cl)ccc3OC)=NO2)CN1C(=O)[C@@H](NC(=O)OC1CCCC1)C(C)(C)C)C(=O)C(=O)NC1CC1 [Compound 686] |  | < 100 nM |
| CCC[C@H](NC(=O)[C@@H]1C[C@]2(CC(c3cc(C)c(OC)cc3C)=NO2)CN1C(=O)[C@@H](NC(=O)CC1CCCCC1)C(C)(C)C)C(=O)C(=O)NC1CC1 [Compound 615] |  | 100 to 500 nM |
| CCC[C@H](NC(=O)[C@@H]1C[C@]2(CC(c3cccc(Cl)c3)=NO2)CN1C(=O)[C@@H](NC(=O)CC1CC2CCC1C2)C1(OC)CC1)C(=O)C(=O)NC1CC1 (stereo partly shown) [Compound 346] |  | < 100 nM |
| CC(C)(C)[C@H](NC(=O)[C@H]1C[C@@H]1c1ccccc1)C(=O)N1C[C@@]2(CC(c3cccc4cccnc34)=NO2)C[C@H]1C(=O)N[C@@H](CC1CC1)C(=O)C(N)=O [Compound 805] | < 100 nM |  |
| CCC[C@H](NC(=O)[C@@H]1C[C@]2(CC(c3cc(Cl)c(OC)cc3C)=NO2)CN1C(=O)[C@@H](NC(=O)CC1CCCCCC1)C(C)(C)C)C(=O)C(=O)NC1CC1 [Compound 606] |  | 100 to 500 nM |
| CCC[C@H](NC(=O)[C@@H]1C[C@]2(CC(c3cc(C)c(OCC)c(C)c3)=NO2)CN1C(=O)[C@@H](NC(=O)[C@@H]1C[C@H]1c1ccccn1)C(C)(C)C)C(=O)C(=O)NC1CC1 [Compound 981] | < 100 nM |  |
| CC(C)(C)[C@H](NC(=O)[C@@H]1C[C@H]1c1ccccc1)C(=O)N1C[C@@]2(CC(c3cccc4cccnc34)=NO2)C[C@H]1C(=O)N[C@@H](CC1CC1)C(=O)C(N)=O [Compound 806] | < 100 nM |  |
| CCC[C@H](NC(=O)[C@@H]1C[C@]2(CC(c3cc(Cl)cc(OC)c3)=NO2)CN1C(=O)[C@@H](NC(=O)CC1CCCCC1)C(C)(C)C)C(=O)C(=O)NC1CC1 [Compound 250] |  | < 100 nM |
| CNC(=O)C(=O)[C@H](CC1CC1)NC(=O)[C@@H]1C[C@]2(CC(c3cccc(Cl)c3)=NO2)CN1C(=O)[C@@H](NC(=O)[C@@H]1C[C@H]1c1c[nH]cn1)C(C)(C)C [Compound 832] | 100 to 500 nM |  |
| COc1c(C)cc(C2=NO[C@]3(C2)C[C@@H](C(=O)N[C@@H](CC2CC2)C(=O)C(N)=O)N(C(=O)[C@@H](NC(=O)CC2CCCCCC2)C(C)(C)C)C3)cc1C [Compound 730] |  | < 100 nM |
| CNC(=O)C(=O)[C@H](CC1CC1)NC(=O)[C@@H]1C[C@]2(CC(c3cccc(Cl)c3)=NO2)CN1C(=O)[C@@H](NC(=O)CC(C)(C)OC)C(C)(C)C [Compound 773] |  | 100 to 500 nM |
| CCC[C@H](NC(=O)[C@@H]1C[C@]2(CC(c3cc(C)c(OCC)c(C)c3)=NO2)CN1C(=O)[C@@H](NC(=O)C1C[C@H]1C(C)C)C(C)(C)C)C(=O)C(=O)NC (stereo partly shown) [Compound 992] | < 100 nM |  |
| CCC[C@H](NC(=O)[C@@H]1C[C@]2(CC(c3ccc(F)c(Cl)c3)=NO2)CN1C(=O)[C@@H](NC(=O)CC(C)(C)C)C(C)(C)C)C(=O)C(N)=O [Compound 625] |  | < 100 nM |
| CCC[C@H](NC(=O)[C@@H]1C[C@]2(CC(c3cc(Cl)c(OC)cc3C)=NO2)CN1C(=O)[C@@H](NC(=O)OC(C)(C)C)C(C)(C)C)C(=O)C(=O)NC [Compound 630] |  | 100 to 500 nM |
| CCC[C@H](NC(=O)[C@@H]1C[C@]2(CC(c3cccc4cccnc34)=NO2)CN1C(=O)[C@@H](NC(=O)CC1CCCCCC1)C(C)(C)C)C(=O)C(=O)NC1CC1 [Compound 595] |  | < 100 nM |

| SMILES | Ki [1] | Ki [2] |
| --- | --- | --- |
| COc1cc(OC)c(C2=NO[C@]3(C2)C[C@@H](C(=O)N[C@@H](CC2CC2)C(=O)C(N)=O)N(C(=O)[C@@H](NC(=O)CC2CCCCC2)C(C)(C)C)C3)cc1Cl [Compound 562] |  | < 100 nM |
| CCC[C@H](NC(=O)[C@@H]1C[C@]2(CC(c3ccc(F)c(Cl)c3)=NO2)CN1C(=O)[C@@H](NC(=O)CC1CCCCCC1)C(C)(C)C)C(=O)C(N)=O [Compound 623] |  | < 100 nM |
| CNC(=O)C(=O)[C@H](CC1CC1)NC(=O)[C@@H]1C[C@]2(CC(c3cc(Cl)c(OC)cc3OC)=NO2)CN1C(=O)[C@@H](NC(=O)OC1CCCC1)C(C)(C)C [Compound 744] |  | < 100 nM |
| COc1ccc(Cl)cc1C1=NO[C@]2(C1)C[C@@H](C(=O)N[C@@H](CC1CC1)C(=O)C(N)=O)N(C(=O)[C@@H](NC(=O)CC1CCCCC1)C(C)(C)C)C2 [Compound 633] |  | < 100 nM |
| CNC(=O)C(=O)[C@H](CC1CC1)NC(=O)[C@@H]1C[C@]2(CC(c3cccc(Cl)c3)=NO2)CN1C(=O)[C@@H](NC(=O)[C@H]1C[C@@H]1c1c[nH]cn1)C(C)(C)C [Compound 833] | < 100 nM |  |
| CCC[C@H](NC(=O)[C@@H]1C[C@]2(CC(c3cccc(Cl)c3)=NO2)CN1C(=O)[C@@H](NC(=O)CC1CCCCC1)C1(OC)CC1)C(=O)C(=O)NC1CC1 [Compound 211] |  | < 100 nM |
| CCC[C@H](NC(=O)[C@@H]1C[C@]2(CC(c3cccc(Cl)c3)=NO2)CN1C(=O)Cc1ccc(OC(F)(F)F)cc1)C(=O)C(=O)NC1CC1 [Compound 380] |  | > 500 nM |
| CCC[C@H](NC(=O)[C@@H]1C[C@]2(CC(c3cc(Cl)cc(OC)c3Cl)=NO2)CN1C(=O)[C@@H](NC(=O)CC1CCCCC1)C(C)(C)C)C(=O)C(=O)NC1CC1 [Compound 38] |  | 100 to 500 nM |
| CNC(=O)C(=O)[C@H](CC1CC1)NC(=O)[C@@H]1C[C@]2(CC(c3cccc(Cl)c3)=NO2)CN1C(=O)[C@@H](NC(=O)[C@@H]1CC12CCOCC2)C(C)(C)C [Compound 927] | < 100 nM |  |
| CCC[C@H](NC(=O)[C@@H]1C[C@]2(CC(c3cc(C)c(OCC)c(C)c3)=NO2)CN1C(=O)[C@@H](NC(=O)[C@H]1C[C@@H]1c1ccc(F)cc1)C(C)(C)C)C(=O)C(=O)NC1CC1 [Compound 996] | < 100 nM |  |
| CCNC(=O)C(=O)[C@H](CC1CC1)NC(=O)[C@@H]1C[C@]2(CC(c3cc(C)c(OC)c(Cl)c3)=NO2)CN1C(=O)[C@@H](NC(=O)[C@@H]1C[C@H]1c1ccccc1)C(C)(C)C [Compound 856] | < 100 nM |  |
| CCC[C@H](NC(=O)[C@@H]1C[C@]2(CC(c3cc(Cl)c(OC)cc3OC)=NO2)CN1C(=O)[C@@H](NC(=O)CC1CC2CCC1C2)C(C)(C)C)C(=O)C(=O)NC1CC1 (stereo partly shown) [Compound 446] |  | < 100 nM |
| CNC(=O)C(=O)[C@H](CC1CC1)NC(=O)[C@@H]1C[C@]2(CC(c3cc(Cl)ccc3OC)=NO2)CN1C(=O)[C@@H](NC(=O)[C@H]1C[C@@H]1c1ccccc1)C(C)(C)C [Compound 903] | < 100 nM |  |
| CCOc1cc(OC)c(C2=NO[C@]3(C2)C[C@@H](C(=O)N[C@@H](CC2CC2)C(=O)C(N)=O)N(C(=O)[C@@H](NC(=O)CC2CCCCC2)C(C)(C)C)C3)cc1Cl [Compound 972] | < 100 nM |  |
| CCC[C@H](NC(=O)[C@@H]1C[C@]2(CC(c3cc(C)c(OC)c(C)c3)=NO2)CN1C(=O)[C@@H](NC(=O)CC1CCCCCC1)C(C)(C)C)C(=O)C(N)=O [Compound 728] |  | < 100 nM |
| CCC[C@H](NC(=O)[C@@H]1C[C@]2(CC(c3cc(Cl)ccc3N(C)C)=NO2)CN1C(=O)[C@@H](NC(=O)CC1CCCCC1)C(C)(C)C)C(=O)C(=O)NC1CC1 [Compound 803] | 100 to 500 nM |  |
| CCC[C@H](NC(=O)[C@@H]1C[C@]2(CC(c3cccc4cccnc34)=NO2)CN1C(=O)[C@@H](NC(=O)CC1CCCCC1)C(C)(C)C)C(=O)C(=O)NC [Compound 68] |  | < 100 nM |
| CCC[C@H](NC(=O)[C@@H]1C[C@]2(CC(c3cc(Cl)c(OC)cc3OC)=NO2)CN1C(=O)[C@@H](NC(=O)OC(C)(C)C)C(C)(C)C)C(=O)C(=O)NC1CC1 [Compound 131] |  | < 100 nM |
| CNC(=O)C(=O)C(CC1CC1)NC(=O)[C@@H]1C[C@]2(CC(c3cc(C)c(OC)c(C)c3)=NO2)CN1C(=O)[C@@H](NC(=O)OC1CCCC1)C(C)(C)C (stereo partly shown) [Compound 768] |  | 100 to 500 nM |
| CCC[C@H](NC(=O)[C@@H]1C[C@]2(CC(c3ccc(F)c(Cl)c3)=NO2)CN1C(=O)[C@@H](NC(=O)CC1CCCCC1)C(C)(C)C)C(=O)C(N)=O [Compound 621] |  | < 100 nM |
| CCC[C@H](NC(=O)[C@@H]1C[C@]2(CC(c3cccc(Cl)c3)=NO2)CN1C(=O)[C@@H](NC(=O)[C@@H]1CC12CCOCC2)C(C)(C)C)C(=O)C(=O)NC [Compound 931] | 100 to 500 nM |  |
| CCC[C@H](NC(=O)[C@@H]1C[C@]2(CC(c3cc(Cl)c(OC)cc3C)=NO2)CN1C(=O)[C@@H](NC(=O)CC(C)(C)C)C(C)(C)C)C(=O)C(=O)NC [Compound 607] |  | 100 to 500 nM |
| CCC[C@H](NC(=O)[C@@H]1C[C@]2(CC(c3cc(C)c(OCC)c(C)c3)=NO2)CN1C(=O)[C@@H](NC(=O)CC1CCCCC1)C(C)(C)OC)C(=O)C(=O)NC1CC1 [Compound 956] | < 100 nM |  |
